Experimental data from PubChem BioAssay AID248 (DTP/NCI, 2004).
Values joined by “and” are separate entries in the source; they are usually repeats but may differ in a detail not shown here. Equal values may be shown once. Inconclusive results and toxic doses are left out. Rule as the data show it: active = T/C of 150% or more; inactive = T/C below 125%.

Tested on: L1210 leukemia ip in BDF1 mice, survival T/C
Assay: NCI In Vivo Anticancer Drug Screen. Data for tumor model L1210 Leukemia (intraperitoneal) in B6D2F1 (BDF1) mice
Conditions: endpoint: mean survival time, higher = longer survival
Summary of the method: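 Read-out is survival time, reported as the treated-group measurement over the vehicle-control measurement.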

[1] = dose: 25.0 mg/kg/injection, schedule: Q04DX002 (ip), vehicle: Klucel (hydroxypropylcellulose) (HPC)
[2] = dose: 100.0 mg/kg/injection, schedule: Q04DX002 (ip), vehicle: Klucel (hydroxypropylcellulose) (HPC)
[3] = dose: 100.0 mg/kg/injection, schedule: Q01DX001 (ip), vehicle: carboxymethylcellulose (CMC)
[4] = dose: 200.0 mg/kg/injection, schedule: Q01DX001 (ip), vehicle: carboxymethylcellulose (CMC)
[5] = dose: 400.0 mg/kg/injection, schedule: Q01DX001 (ip), vehicle: carboxymethylcellulose (CMC)
[6] = dose: 100.0 mg/kg/injection, schedule: Q01DX001 (ip), vehicle: saline
[7] = dose: 200.0 mg/kg/injection, schedule: Q01DX001 (ip), vehicle: saline
[8] = dose: 100.0 mg/kg/injection, schedule: Q04DX003 (ip), vehicle: saline with Tween-80
[9] = dose: 100.0 mg/kg/injection, schedule: Q04DX002 (ip), vehicle: saline with Tween-80
[10] = dose: 75.0 mg/kg/injection, schedule: Q01DX001 (ip), vehicle: other
[11] = dose: 25.0 mg/kg/injection, schedule: Q01DX009 (ip), vehicle: saline
[12] = dose: 50.0 mg/kg/injection, schedule: Q01DX009 (ip), vehicle: saline
[13] = dose: 25.0 mg/kg/injection, schedule: Q04DX002 (ip), vehicle: saline
[14] = dose: 50.0 mg/kg/injection, schedule: Q04DX002 (ip), vehicle: saline
[15] = dose: 100.0 mg/kg/injection, schedule: Q04DX002 (ip), vehicle: saline
[16] = dose: 200.0 mg/kg/injection, schedule: Q04DX002 (ip), vehicle: saline with Tween-80
[17] = dose: 400.0 mg/kg/injection, schedule: Q04DX002 (ip), vehicle: saline with Tween-80

Measured: T/C

CC(C)N=C(N)CSS(=O)(=O)O
inactive: [1] 101 % of control | dose: 50.0 mg/kg/injection, schedule: Q04DX002 (ip), vehicle: Klucel (hydroxypropylcellulose) (HPC) 97 % of control | [2] 101 % of control and 102 % of control

C#CCOC(=O)Nc1ccccc1
inactive: dose: 50.0 mg/kg/injection, schedule: Q01DX009 (ip), vehicle: Klucel (hydroxypropylcellulose) (HPC) 100 % of control | dose: 100.0 mg/kg/injection, schedule: Q01DX009 (ip), vehicle: Klucel (hydroxypropylcellulose) (HPC) 100 % of control | dose: 200.0 mg/kg/injection, schedule: Q01DX009 (ip), vehicle: Klucel (hydroxypropylcellulose) (HPC) 107 % of control

CC1=C(C(=O)O)C(c2ccccc2)CC(=O)N1 (stereo not drawn)
inactive: dose: 50.0 mg/kg/injection, schedule: Q01DX001 (ip), vehicle: carboxymethylcellulose (CMC) 96 % of control | [3] 104 % of control | [4] 98 % of control | [5] 98 % of control

COc1ccc2c(c1)CCC1C2CCC2(C)C(=O)C(SC3=NC=NC4=NC=NC43)CC12 (stereo not drawn)
inactive: dose: 100.0 mg/kg/injection, schedule: Q01DX001 (sc), vehicle: steriod suspending solution 97 % of control | dose: 200.0 mg/kg/injection, schedule: Q01DX001 (sc), vehicle: steriod suspending solution 96 % of control | dose: 400.0 mg/kg/injection, schedule: Q01DX001 (sc), vehicle: steriod suspending solution 111 % of control

CCOC(=O)C1CN(CCc2ccccc2)CCC1=O (stereo not drawn)
inactive: dose: 75.0 mg/kg/injection, schedule: Q01DX001 (ip), vehicle: saline 101 % of control | dose: 75.0 mg/kg/injection, schedule: Q04DX003 (ip), vehicle: saline 100 % of control | dose: 150.0 mg/kg/injection, schedule: Q01DX001 (ip), vehicle: saline 95 % of control | dose: 150.0 mg/kg/injection, schedule: Q04DX003 (ip), vehicle: saline 100 % of control | dose: 300.0 mg/kg/injection, schedule: Q01DX001 (ip), vehicle: saline 91 % of control | dose: 300.0 mg/kg/injection, schedule: Q04DX003 (ip), vehicle: saline 108 % of control

c1csc(CNCCN2CC2)c1
inactive: dose: 2.5 mg/kg/injection, schedule: Q01DX009 (ip), vehicle: saline 89 % of control | dose: 2.5 mg/kg/injection, schedule: Q04DX003 (ip), vehicle: saline 95 % of control | dose: 5.0 mg/kg/injection, schedule: Q04DX003 (ip), vehicle: saline 103 % of control | dose: 10.0 mg/kg/injection, schedule: Q04DX003 (ip), vehicle: saline 100 % of control

O=[N+]([O-])c1ccc(N2CCCC2)nc1
inactive: dose: 100.0 mg/kg/injection, schedule: Q01DX001 (ip), vehicle: saline with Tween-80 107 % of control | dose: 200.0 mg/kg/injection, schedule: Q01DX001 (ip), vehicle: saline with Tween-80 93 % of control | dose: 400.0 mg/kg/injection, schedule: Q01DX001 (ip), vehicle: saline with Tween-80 100 % of control

c1ccc2c(c1)ncc1cccn12
inactive: [6] 103 % of control | [7] 103 % of control | dose: 400.0 mg/kg/injection, schedule: Q01DX001 (ip), vehicle: saline 103 % of control

CC(C)C(CN)(CCCN1CCCC1)c1cccc2ccccc12 (stereo not drawn)
inactive: [8] 102 % of control

CC([NH-])C(=O)O.CC([NH-])C(=O)O.CC([NH-])C(=O)O.[Co+3] (stereo not drawn)
inactive: dose: 25.0 mg/kg/injection, schedule: Q04DX002 (ip), vehicle: saline with Tween-80 115 % of control | dose: 50.0 mg/kg/injection, schedule: Q01DX009 (ip), vehicle: water 103 % of control | dose: 50.0 mg/kg/injection, schedule: Q04DX002 (ip), vehicle: saline with Tween-80 98 % of control | dose: 100.0 mg/kg/injection, schedule: Q01DX009 (ip), vehicle: water 118 % of control | [9] 115 % of control

CC1=NN(P(=O)(c2ccccc2)c2ccccc2)/C(=C\c2ccccc2)O1
inactive: dose: 100.0 mg/kg/injection, schedule: Q01DX001 (ip), vehicle: steriod suspending solution 90 % of control | dose: 200.0 mg/kg/injection, schedule: Q01DX001 (ip), vehicle: steriod suspending solution 104 % of control | dose: 400.0 mg/kg/injection, schedule: Q01DX001 (ip), vehicle: steriod suspending solution 90 % of control

O=C(CCl)N(O)c1ccc(/C=C/c2ccccc2)cc1
inactive: [3] 90 % of control | [4] 88 % of control | [5] 95 % of control

CCOC(=O)N[n+]1ccc(C)cc1
inactive: [10] 101 % of control | dose: 150.0 mg/kg/injection, schedule: Q01DX001 (ip), vehicle: other 101 % of control | dose: 300.0 mg/kg/injection, schedule: Q01DX001 (ip), vehicle: other 105 % of control

CNc1cccc([N+](=O)[O-])c1
inactive: [6] 95 % of control | [7] 103 % of control

CC1(C)C2CCC(CC(=O)O)C1C2 (stereo not drawn)
inactive: [8] 101 % of control | dose: 200.0 mg/kg/injection, schedule: Q04DX003 (ip), vehicle: saline with Tween-80 101 % of control

CN(C)Cc1ccc([N+](=O)[O-])cc1
inactive: [11] 93 % of control | [12] 98 % of control | [10] 98 % of control | dose: 100.0 mg/kg/injection, schedule: Q01DX009 (ip), vehicle: saline 101 % of control | dose: 100.0 mg/kg/injection, schedule: Q04DX003 (ip), vehicle: saline 95 % of control | dose: 200.0 mg/kg/injection, schedule: Q01DX009 (ip), vehicle: saline 96 % of control | dose: 200.0 mg/kg/injection, schedule: Q04DX003 (ip), vehicle: saline 87 % of control

CC(=O)Nc1ccc(N=NN(C)C)cc1
inactive: dose: 1.56 mg/kg/injection, schedule: Q04DX003 (ip), vehicle: saline with Tween-80 97 % of control and 101 % of control | dose: 3.12 mg/kg/injection, schedule: Q01DX001 (ip), vehicle: saline with Tween-80 101 % of control | dose: 3.12 mg/kg/injection, schedule: Q04DX003 (ip), vehicle: saline with Tween-80 97 % of control and 98 % of control | dose: 6.25 mg/kg/injection, schedule: Q01DX001 (ip), vehicle: saline with Tween-80 107 % of control | dose: 6.25 mg/kg/injection, schedule: Q04DX003 (ip), vehicle: saline with Tween-80 101 % of control and 104 % of control | dose: 12.5 mg/kg/injection, schedule: Q01DX001 (ip), vehicle: saline with Tween-80 108 % of control | dose: 12.5 mg/kg/injection, schedule: Q04DX003 (ip), vehicle: saline with Tween-80 100 % of control and 102 % of control | dose: 25.0 mg/kg/injection, schedule: Q01DX001 (ip), vehicle: saline with Tween-80 113 % of control

CN(N=O)C(=O)NCc1c[nH]c(=O)[nH]c1=O
inactive: dose: 6.0 mg/kg/injection, schedule: Q01DX Z (ip), vehicle: carboxymethylcellulose (CMC) 106 % of control | dose: 12.0 mg/kg/injection, schedule: Q01DX Z (ip), vehicle: carboxymethylcellulose (CMC) 101 % of control | dose: 25.0 mg/kg/injection, schedule: Q01DX Z (ip), vehicle: carboxymethylcellulose (CMC) 100 % of control | dose: 50.0 mg/kg/injection, schedule: Q01DX Z (ip), vehicle: carboxymethylcellulose (CMC) 121 % of control

CCC(NC)c1ccccc1 (stereo not drawn)
inactive: [13] 104 % of control | [14] 89 % of control | [15] 106 % of control

COC1CCC(/C=C(\C#N)C2CCC([N+](=O)[O-])CC2)CC1 (stereo not drawn)
inactive: [9] 106 % of control | [16] 102 % of control | [17] 98 % of control

Clc1ccc(Oc2nc3c(Cl)cccc3s2)cc1Cl
inactive: [2] 101 % of control | dose: 200.0 mg/kg/injection, schedule: Q04DX002 (ip), vehicle: Klucel (hydroxypropylcellulose) (HPC) 101 % of control | dose: 400.0 mg/kg/injection, schedule: Q04DX002 (ip), vehicle: Klucel (hydroxypropylcellulose) (HPC) 97 % of control

COc1cc(C(=O)O/N=C(\N)CCl)cc(OC)c1OC
inactive: dose: 6.25 mg/kg/injection, schedule: Q04DX002 (ip), vehicle: Klucel (hydroxypropylcellulose) (HPC) 92 % of control | dose: 12.5 mg/kg/injection, schedule: Q04DX002 (ip), vehicle: Klucel (hydroxypropylcellulose) (HPC) 88 % of control | [1] 88 % of control

CC(C)=CCC/C(C)=C/CC/C(C)=C/CC(=O)OCC=C(C)C
inactive: [9] 89 % of control | [16] 99 % of control | [17] 99 % of control

Cc1cncn1CC(=O)c1ccccc1
inactive: [11] 104 % of control and 105 % of control | [13] 101 % of control and 105 % of control | [12] 103 % of control and 104 % of control | [14] 101 % of control and 108 % of control | [2] 93 % of control | [15] 103 % of control
